This note sets out measurements from patent US12006330B2, “Substituted macrocyclic compounds and related methods of treatment” (Alkermes, Inc., priority 2020, dated 2024).

For this data set, the system named is MDCK-MDR1 cells. As to the kind of experiment: MDCK-MDR1 permeability assay. Type of data set: in vitro ADME. To be noted: MDCK-MDR1 cells; test compound 3 μM; 2 hours at 37 degrees C; apical to basolateral. Put shortly:
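Receiver and donor compartments were analysed by LC-MS/MS after a 2 h incubation at 37 °C of 3 μM compound in HBSS on MDCK-MDR1 monolayers, run in both directions with Lucifer Yellow (100 μM) as integrity marker. Apparent permeability came from translocation rate, insert area and initial concentration; B→A/A→B Papp gave the efflux ratio, alongside percent recovery.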

As for `Cc1ncnc2c1[C@H]1CC[C@H](CC1)OCC1[C@@H](NS(C)(=O)=O)CCCN1C(=O)CO2` (stereo in doubt) [Compound 27], the “Papp A → B (10^−6 cm/s)” value is given as 0.33 10^−6 cm/s.
